In patent US20170304388A1, “NEW INDICATION OF CARDIOVASCULAR DRUGS FOR PREPARATION OF CANCER INHIBITION PHARMACEUTICAL COMPOSITION” (LAUNX BIOMEDICAL CO., LTD., priority 2014, published 2017):

Key:
Assay type in all cases: cell-based
[1] = tested on: A375 (Amelanotic Melanoma); assay: Cell viability analysis (WST-1), A375; conditions: Table 4, repeated experiments, drug 10 μM; for viability at 10 µM: Homo sapiens, A-375, 72 h, WST-1, read-out: survival rate (viability) of cancer cells, A375
[2] = tested on: AGS (Gastric Adenocarcinoma); assay: Cell viability analysis (WST-1), AGS; conditions: 72 h, Table 4, repeated experiments, drug 10 μM, WST-1, read-out: survival rate (viability) of cancer cells, AGS
[3] = tested on: BCC; assay: Cell viability analysis (WST-1), BCC; conditions: Table 4, repeated experiments, drug 10 μM; for viability at 10 µM: BCC, 72 h, read-out: survival rate (viability) of cancer cells, BCC
[4] = tested on: MCF7 (Mammary Gland, Adenocarcinoma); assay: Cell viability analysis (WST-1), MCF7; conditions: Table 4, repeated experiments, drug 10 μM; for viability at 10 µM: Homo sapiens, MCF7, 72 h, WST-1, read-out: survival rate (viability) of cancer cells, MCF-7
[5] = tested on: U2OS; assay: Cell viability analysis (WST-1), U2OS; conditions: Homo sapiens, U2OS, 72 h, Table 4, repeated experiments, drug 10 μM, read-out: survival rate (viability) of cancer cells, U2OS
Method: (§1) Subculture the different types of cancer cells. The cancer cells includes lung cancer, gastric cancer, hepatic cancer, colon cancer, skin cancer, cervical cancer, prostate cancer, bladder cancer, breast cancer, leukemia, pancreatic cancer, ovarian cancer, tongue cancer, osteosarcoma, and renal cancer. The cell numbers were counted and reseed as 2×10^6 in cell culture plate/flask. Then, the culture medium for culturing the cell lines was added to a volume of 10 ml, and the cells were cultured for 2-3 days. Then, the cells were suspended for loading into 96-well plates. The cell number was 3000 cells and the volume of the culture medium was 100 ul each well.
(§2) Removing the original culture medium from 96-well plate. Then add 100 μl of commercially drug at a concentration of 10 μM per well. After 72 hours, add the diluted WST-1 reagent to the well with 100 μl/well, and the diluted WST-1 reagent was acquired from the dilution of 9:1 medium and WST-1 stock reagent. Finally, the total volume of each well are 200 μl/well. Culture the 96-well plate at 37° C. for 30 to 90 minutes. Detecting and calculating the survival rate of each cancer cells with an ELISA reader at OD450 nm. The lower viability of cancer cells represents better inhibition effect via the drugs. Otherwise, the higher viability of cancer cells represents worse inhibition effect via the drugs.
(§3) According to the above mentioned cardiovascular drugs for cancer growth inhibition in Table 3, the inventors took the repeat experiments for the cardiovascular drugs to check the growth inhibitory effects of cancer cells by the cardiovascular drugs. […] 4.

[6] = tested on: PC3 (Prostate Adenocarcinoma); assay: Cell viability analysis (WST-1), PC3; conditions: Table 4, repeated experiments, drug 10 μM; for viability at 10 µM: 72 h, WST-1, read-out: survival rate (viability) of cancer cells, PC-3
[7] = tested on: H1650 (Lung Adenocarcinoma); assay: Cell viability analysis (WST-1), H1650; conditions: Table 4, repeated experiments, drug 10 μM; for viability at 10 µM: Homo sapiens, NCI-H1650, 72 h, WST-1, read-out: survival rate (viability) of cancer cells, H1650
[8] = tested on: Hep3B; assay: Cell viability analysis (WST-1), Hep3B; conditions: Table 4, repeated experiments, drug 10 μM; for viability at 10 µM: Homo sapiens, Hep3B, 72 h, read-out: survival rate (viability) of cancer cells, Hep3B
Method: as §1, §2, §3

[9] = tested on: cancer cell lines; assay: Growth inhibitory effects on the panel of cancer cell lines; conditions: drug 10 μM, 72 hours, WST-1
[10] = tested on: MDA-MB231; assay: Cell viability analysis (WST-1), MDA-MB231; conditions: Table 4, repeated experiments, drug 10 μM; for viability at 10 µM: Homo sapiens, MDA-MB-231, 72 h, read-out: survival rate (viability) of cancer cells, MDA-MB231
[11] = tested on: BxPC-3; assay: Cell viability analysis (WST-1), BxPC-3; conditions: Homo sapiens, BXPC-3, 72 h, Table 4, repeated experiments, drug 10 μM, read-out: survival rate (viability) of cancer cells, BxPC-3
Method: as §1, §2, §3

[12] = tested on: NIH-OVCAR-3; assay: Cell viability analysis (WST-1), NIH-OVCAR-3; conditions: Table 4, repeated experiments, drug 10 μM; for viability at 10 µM: Homo sapiens, OVCAR-3, 72 h, read-out: survival rate (viability) of cancer cells, NIH-OVCAR-3
Method: as §1, §2, §3

[13] = tested on: TOV-21G; assay: Cell viability analysis (WST-1), TOV-21G; conditions: Table 4, repeated experiments, drug 10 μM; for viability at 10 µM: Homo sapiens, TOV21G, 72 h, read-out: survival rate (viability) of cancer cells, TOV-21G
Method: as §1, §2, §3

[14] = tested on: AsPC-1; assay: Cell viability analysis (WST-1), AsPC-1; conditions: Table 4, repeated experiments, drug 10 μM; for viability at 10 µM: Homo sapiens, ASPC1, 72 h, read-out: survival rate (viability) of cancer cells, AsPC-1
Method: as §1, §2, §3

[15] = tested on: TSGH-8301 (Urinary Bladder Carcinoma); assay: Cell viability analysis (WST-1), TSGH-8301; conditions: 72 h, Table 4, repeated experiments, drug 10 μM, WST-1, read-out: survival rate (viability) of cancer cells, TSGH-8301
[16] = tested on: A549 (Lung Adenocarcinoma); assay: Cell viability analysis (WST-1), A549; conditions: Table 4, repeated experiments, drug 10 μM; for viability at 10 µM: Homo sapiens, A549, 72 h, WST-1, read-out: survival rate (viability) of cancer cells, A549
[17] = tested on: C-33A; assay: Cell viability analysis (WST-1), C-33A; conditions: Table 4, repeated experiments, drug 10 μM; for viability at 10 µM: Homo sapiens, C-33-A, 72 h, read-out: survival rate (viability) of cancer cells, C-33A
Method: as §1, §2, §3

[18] = tested on: SAS; assay: Cell viability analysis (WST-1), SAS; conditions: 72 h, Table 4, repeated experiments, drug 10 μM, read-out: survival rate (viability) of cancer cells, SAS
Method: as §1, §2, §3

[19] = tested on: MKN-45 (Gastric Adenocarcinoma); assay: Cell viability analysis (WST-1), MKN-45; conditions: Homo sapiens, MKN-45, 72 h, Table 4, repeated experiments, drug 10 μM, WST-1, read-out: survival rate (viability) of cancer cells, MKN-45
[20] = tested on: 786-O; assay: Cell viability analysis (WST-1), 786-O; conditions: Homo sapiens, 786-0, 72 h, Table 4, repeated experiments, drug 10 μM, read-out: survival rate (viability) of cancer cells, 786-O
Method: as §1, §2, §3

[21] = tested on: HeLa (Cervix Adenocarcinoma); assay: Cell viability analysis (WST-1), HeLa; conditions: Table 4, repeated experiments, drug 10 μM; for viability at 10 µM: Homo sapiens, HeLa, 72 h, WST-1, read-out: survival rate (viability) of cancer cells, HeLa
[22] = tested on: HepG2 (Hepatocellular Carcinoma); assay: Cell viability analysis (WST-1), HepG2; conditions: Table 4, repeated experiments, drug 10 μM; for viability at 10 µM: Homo sapiens, HepG2, 72 h, WST-1, read-out: survival rate (viability) of cancer cells, HepG2
[23] = tested on: T24; assay: Cell viability analysis (WST-1), T24; conditions: Homo sapiens, T-24, 72 h, Table 4, repeated experiments, drug 10 μM, read-out: survival rate (viability) of cancer cells, T24
Method: as §1, §2, §3

[24] = tested on: LoVo (Colorectal Adenocarcinoma); assay: Cell viability analysis (WST-1), LoVo; conditions: Table 4, repeated experiments, drug 10 μM; for viability at 10 µM: Homo sapiens, LoVo, 72 h, WST-1, read-out: survival rate (viability) of cancer cells, LoVo
[25] = tested on: HCT116 (Colorectal Carcinoma); assay: Cell viability analysis (WST-1), HCT116; conditions: Table 4, repeated experiments, drug 10 μM; for viability at 10 µM: Homo sapiens, HCT-116, 72 h, WST-1, read-out: survival rate (viability) of cancer cells, HCT116

Row | Compound | viability at 10 µM [1] | viability at 10 µM [2] | viability at 10 µM [3] | viability at 10 µM [4] | viability at 10 µM [5] | viability at 10 µM [6] | viability at 10 µM [7] | viability at 10 µM [8] | viability at 10 µM [10] | viability at 10 µM [11] | viability at 10 µM [12] | viability at 10 µM [13] | viability at 10 µM [14] | viability at 10 µM [15] | viability at 10 µM [16] | viability at 10 µM [17] | viability at 10 µM [18] | viability at 10 µM [19] | viability at 10 µM [20] | viability at 10 µM [23] | also measured
1 | COCCOC(=O)C1=C(C)NC(C)=C(C(=O)OC/C=C/c2ccccc2)C1c1cccc([N+](=O)[O-])c1 (stereo not shown) [Cilnidipine] | 47.1% | 76.9% | 60.2% | 64.6% | 43.1% | 61.4% | 69% | 92.7% | 86.3% | 68.7% | 75.9% | 62.9% | 57.6% | 95.9% | 67.8% | 93% | 38.9% | 105% | 86.7% | 108% | inhibition effect on different cancer cell lines (in words) [9]: significant inhibition effect; viability at 10 µM [21]: 64.3%; viability at 10 µM [22]: 77.1%; viability at 10 µM [24]: 53.7%; viability at 10 µM [25]: 88.6%
2 | CCOC(=O)C1=C(COCCN)NC(C)=C(C(=O)OC)C1c1ccccc1Cl (stereo not shown) [Amlodipine (Norvase), Amlodipine] |  | 16.5% |  |  | 78.9% |  |  |  |  | 86% |  |  |  | 36.2% |  |  | 99.2% | 88.2% | 81.4% | 96.6% | survival rate (viability) of cancer cells, A375 ([1]; 72 hours, WST-1): 81.58; survival rate (viability) of cancer cells, BCC ([3]; 72 hours): 74.9299; survival rate (viability) of cancer cells, MCF-7 ([4]; 72 hours, WST-1): 63.42; survival rate (viability) of cancer cells, PC-3 ([6]; 72 hours, WST-1): 85.88; survival rate (viability) of cancer cells, H1650 ([7]; 72 hours, WST-1): 72.01; survival rate (viability) of cancer cells, Hep3B ([8]; 72 hours): 99.22; survival rate (viability) of cancer cells, MDA-MB231 ([10]; 72 hours): 87.55; survival rate (viability) of cancer cells, NIH-OVCAR-3 ([12]; 72 hours): 90.31; survival rate (viability) of cancer cells, TOV-21G ([13]; 72 hours): 61.32; survival rate (viability) of cancer cells, AsPC-1 ([14]; 72 hours): 89.04; survival rate (viability) of cancer cells, A549 ([16]; 72 hours, WST-1): 89.22; survival rate (viability) of cancer cells, C-33A ([17]; 72 hours): 38.18; survival rate (viability) of cancer cells, HeLa ([21]; 72 hours, WST-1): 86.96; survival rate (viability) of cancer cells, HepG2 ([22]; 72 hours, WST-1): 71.76; survival rate (viability) of cancer cells, LoVo ([24]; 72 hours, WST-1): 90.33; survival rate (viability) of cancer cells, HCT116 ([25]; 72 hours, WST-1): 91.96
3 | C[C@@H]1O[C@@H](O[C@H]2C[C@@H](O)[C@]3(CO)[C@H]4[C@H](O)C[C@]5(C)[C@@H](C6=CC(=O)OC6)CC[C@]5(O)[C@@H]4CC[C@]3(O)C2)[C@H](O)[C@H](O)[C@H]1O [Ouabain] | 18.4% | 16.6% | 25.6% | 29.1% | 22.8% | 25.8% | 38.7% | 33.4% | 44.5% | 27% | 42.3% | 15.9% | 20.1% | 43.6% | 15.1% | 35.5% | 20.2% | 53% | 14.5% | 17.6% | viability at 10 µM [21]: 23.1%; viability at 10 µM [22]: 38.1%; viability at 10 µM [24]: 39.7%; viability at 10 µM [25]: 15.9%
